The source of these data is US10294212B2 (CURADEV PHARMA PRIVATE LTD., priority 2013, dated 2019).

In one test the test system is CT-26 tumor cells. Kind of test: Antitumor activity in syngeneic CT26/Balb/C tumor model. Type of test: in vivo, Balb/c mice. As to conditions: 60 mg/kg oral BID, vs control animals. As to the method: Tumor volume reduction by the test compounds was evaluated in a syngeneic CT26/Balb/C tumor model as described below. Balb/c mice were purchased from Vivo Bio Tech, Hyderabad, India, and housed in sterile conditions using an individually ventilated caging system manufactured by Citizen Industries Limited, Ahmedabad, India. Mice were quarantined for at least 7 days before experimentation.
Mouse colorectal tumor forming cells, CT-26 cells (ATCC, USA), were cultured in DMEM and 10% FBS medium supplemented with lx non-essential amino acid (HiMedia) in an incubator maintained at 37QC with 95% humidity and 5% CO2. One million (1×10^6) live syngeneic CT-26 cells suspended in 0.2 ml of […] were injected subcutaneously in the right flank of each Balb/c mouse (age 6-8 weeks, weight: about 18-20 g) on day 1 under anesthesia. Eight to ten mice were used per experimental group. Subcutaneous cells formed localized tumors. Animals were visually inspected twice a day. Tumor measurements were initiated 7 days post injection using Vernier calipers. Tumor sizes at day 7 ranged typically from 80-150 mm^3. Tumor dimensions were subsequently measured every 3 to 4 days and tumor volume was determined. Assuming tumors to be ellipsoid, tumor volume was calculated using the formula: V=(D×d×d)/2
Where D is longest diameter in mm, and d is shortest diameter in mm.
When the average tumor volume in the mice reached 100-120 mm^3, tumor bearing mice were randomized for treatment with either test compound or vehicle alone. Test compounds were formulated generally in normal saline comprising Polyethylene Glycol (PEG400), Propylene glycol (PG) and Dimethyl Acetamide (DACM) at pH 4.5-5.0 and dosed orally at ranges 40-75 mg/kg (dose volume—5 mL/kg) twice a day. Solutions of the compounds were prepared immediately before dosing the animals. In general, tumor volume was measured at various times post-dosing from day 1 to day 34.
A non-limiting example is provided. Tumor bearing mice were dosed orally twice a day at 40 mg/kg body weight with either vehicle control or test compound 2 formulated in 30% Polyethylene Glycol (PEG-400), 20% Propylene glycol (PG) in normal saline. Tumors were measured and tumor volumes were determined at 1, 4, 6, 9, 11, and 14 days after the first dose as described above. Animals were sacrificed on day 14. Tumor and blood samples were harvested for further analysis. Just prior to animal sacrifice, blood was drawn retro-orbitally into a tube containing 0.2% EDTA for plasma collection. The harvested tumors were weighed and snap frozen in liquid nitrogen immediately. Plasma KYN concentrations are measured for pharmacokinetic analysis using LC/MS/MS using an API4000 mass spectrometer (Applied Biosystems) coupled to a Shimadzu Prominence LC system fitted with a C18 column.

The target of test [1] is Human TDO (hTDO)-transfected CHO-K1 cells (Homo sapiens (Human), UniProt P48775). In words: CHO-K1 cell based TDO assay. To be noted: hTDO cellular assay. The procedure, abridged: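 Kynurenine output was read by LC/MS/MS after TCA precipitation and 15 min at 65° C. Before that, CHO-K1 cells stably carrying human TDO2 were incubated 2 h with compounds (typically 31 μM to 10 nM) and 80 μM L-tryptophan in HBSS. Decrease versus DMSO vehicle gave percent inhibition, then IC50.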

For test [2], the target named is Human indoleamine 2,3-dioxygenase1 (hIDO1) (Homo sapiens (Human), UniProt P14902). Kind of test: In-vitro IDO1 enzyme assay (conversion of L-tryptophan to KYN). Type of test: biochemical. To be noted: read-out: IC50 (IDO1) Enz. The procedure, abridged:
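Kynurenine formation quantified by HPLC absorbance at 360 nm or LC/MS/MS after TCA quench and 15 min at 65 °C. Reaction: 10 nM N-His hIDO1, 30 μM tryptophan, ascorbate/methylene blue/catalase, pH 6.5 phosphate buffer, 37 °C for 30 min. Inhibition relative to 1% DMSO vehicle, fitted to IC50.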

Another test addresses IDO1 in HeLa cells (Homo sapiens (Human), UniProt P14902). In words: HeLa cell based IDO1 assay (IFNγ-induced, KYN in supernatant). A digest of the protocol: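 Kynurenine in the supernatant, quantified by C-18 HPLC with 360 nm absorbance after TCA hydrolysis (65 °C, 15 min), was the read-out. Compounds (typically 10 μM to 1 nM) were added in HBSS containing 80 μM tryptophan to HeLa cells pre-induced overnight with 50 ng/mL IFNγ. IC50 came from nonlinear fits of % inhibition versus 1% DMSO vehicle.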

Chain of Human TDO (hTDO)-transfected CHO-K1 cells (P48775 whole entry): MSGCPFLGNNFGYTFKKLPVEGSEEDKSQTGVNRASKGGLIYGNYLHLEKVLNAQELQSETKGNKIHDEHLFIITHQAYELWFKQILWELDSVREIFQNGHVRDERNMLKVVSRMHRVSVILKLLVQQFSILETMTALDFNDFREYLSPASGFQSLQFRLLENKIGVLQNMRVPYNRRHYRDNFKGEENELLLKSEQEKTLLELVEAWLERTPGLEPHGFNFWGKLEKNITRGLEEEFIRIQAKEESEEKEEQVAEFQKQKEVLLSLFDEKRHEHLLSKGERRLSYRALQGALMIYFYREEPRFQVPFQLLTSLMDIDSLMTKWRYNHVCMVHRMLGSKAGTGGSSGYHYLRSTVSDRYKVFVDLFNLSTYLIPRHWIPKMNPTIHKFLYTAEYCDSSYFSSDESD
Chain of IDO1 in HeLa cells (P14902 whole entry): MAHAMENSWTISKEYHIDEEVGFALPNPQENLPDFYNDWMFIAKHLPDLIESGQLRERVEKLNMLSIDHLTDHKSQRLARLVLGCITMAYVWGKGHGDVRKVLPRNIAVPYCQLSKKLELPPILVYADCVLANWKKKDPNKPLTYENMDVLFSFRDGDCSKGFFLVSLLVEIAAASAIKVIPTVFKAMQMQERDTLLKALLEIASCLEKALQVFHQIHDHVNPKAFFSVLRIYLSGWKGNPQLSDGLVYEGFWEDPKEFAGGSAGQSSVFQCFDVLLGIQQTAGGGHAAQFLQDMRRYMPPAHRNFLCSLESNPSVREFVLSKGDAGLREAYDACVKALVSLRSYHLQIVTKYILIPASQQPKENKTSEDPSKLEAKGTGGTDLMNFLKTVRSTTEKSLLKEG
Chain of Human indoleamine 2,3-dioxygenase1 (hIDO1) (P14902 whole entry): as above

As usually defined, the IC50 is the concentration at which inhibition is half-maximal. As for `Nc1oc2c(Cl)nccc2c1Nc1ccc(F)c(Cl)c1` [Compound 166, 7-Chloro-N3-(3-chloro-4-fluorophenyl)furo[2,3-c]pyridine-2,3-diamine], in the test on CT-26 tumor cells, the “reduction of tumor growth” value is 26%-38. In addition, the values for the IC50 (in test [1]; in test [2]; against IDO1 in HeLa cells) were < 500 nM, < 200 nM and < 200 nM, respectively.
